Test results reported in EP4745134A1 (Jiangsu Yahong Meditech Co., Ltd., priority 2023, dated 2025).
Where two headings read alike, the source gives them in different places.

Assays:
[1] = target: PRMT5-MTA (Homo sapiens, UniProt O14744); assay: Enzymatic inhibitory activity against PRMT5-MTA (AlphaScreen); format: biochemical
Outline: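 PRMT5/[…] (1 nM) was preincubated for 30 min at room temperature with 1 µM […] and 2.5 µM SAM, then exposed to compound (10-point, 3-fold from 1000 nM) for 15 min at 23 °C. Histone H4 substrate (5 nM) was added and reacted for 45 min at 23 °C. Symmetric dimethyl-R3 H4 was detected by AlphaScreen and IC50 calculated.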

[2] = tested on: HCT116-WT cells; assay: Inhibitory activity against cell proliferation (CellTiter Glo, 6 days), HCT116-WT; format: cell-based; conditions: 144 h, HCT116-WT cells, 6 days, CellTiter Glo; read-out: HCT116-WT IC50
Outline: (§1)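 Cells were seeded at 250 per well in McCoy's 5A with 10% FBS and left overnight at 37°C, 5% CO2. Compounds were added as 8-point, 4-fold dilutions from 10000 nM, with DMSO-only controls, for 6 days. IC50 values came from CellTiter Glo luminescence.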

[3] = tested on: HCT116 MTAP KO cells; assay: Inhibitory activity against cell proliferation (CellTiter Glo, 6 days), HCT116 MTAP KO; format: cell-based; conditions: for IC50: Homo sapiens, HCT-116, 144 h, HCT116 MTAP KO cells, 6 days, CellTiter Glo, read-out: HCT116 MTAP KO IC50; for Selectivity HCT 116-WT/ HCT116 MTAP KO: ratio of IC50 HCT116-WT / HCT116 MTAP KO
Outline: as §1

Sequence of PRMT5-MTA (O14744 whole entry): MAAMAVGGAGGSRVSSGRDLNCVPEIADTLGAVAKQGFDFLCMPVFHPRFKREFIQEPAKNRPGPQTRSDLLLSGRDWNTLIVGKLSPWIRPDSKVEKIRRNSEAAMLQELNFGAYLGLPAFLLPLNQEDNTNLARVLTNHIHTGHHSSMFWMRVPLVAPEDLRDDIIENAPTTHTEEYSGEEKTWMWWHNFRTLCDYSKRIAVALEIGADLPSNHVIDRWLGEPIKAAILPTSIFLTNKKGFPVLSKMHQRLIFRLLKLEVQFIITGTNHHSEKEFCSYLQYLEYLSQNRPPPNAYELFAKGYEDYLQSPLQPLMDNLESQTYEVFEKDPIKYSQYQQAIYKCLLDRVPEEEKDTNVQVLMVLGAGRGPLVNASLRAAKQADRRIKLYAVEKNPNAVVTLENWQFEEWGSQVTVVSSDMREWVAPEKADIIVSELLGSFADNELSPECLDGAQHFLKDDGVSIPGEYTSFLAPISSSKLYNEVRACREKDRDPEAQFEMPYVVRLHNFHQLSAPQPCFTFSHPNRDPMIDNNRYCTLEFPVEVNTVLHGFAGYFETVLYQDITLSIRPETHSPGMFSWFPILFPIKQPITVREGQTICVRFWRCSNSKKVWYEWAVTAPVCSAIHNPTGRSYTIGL
Sequence of PRMT5-MTA (Q9BQA1 whole entry partner): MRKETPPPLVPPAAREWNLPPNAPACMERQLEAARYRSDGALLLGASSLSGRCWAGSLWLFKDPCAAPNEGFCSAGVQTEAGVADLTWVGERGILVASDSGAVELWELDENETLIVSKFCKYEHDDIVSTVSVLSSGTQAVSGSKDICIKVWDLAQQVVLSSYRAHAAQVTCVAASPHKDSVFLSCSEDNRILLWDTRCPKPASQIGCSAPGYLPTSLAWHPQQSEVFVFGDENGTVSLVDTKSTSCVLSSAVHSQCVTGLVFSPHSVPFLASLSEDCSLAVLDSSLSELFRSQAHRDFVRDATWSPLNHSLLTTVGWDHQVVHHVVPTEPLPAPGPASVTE

Cc1cc2nc(N)c3cnn(C)c3c2cc1C(=O)N1CC(C)CN1c1ccncc1F (stereo not drawn) [Example 379, (4-amino-1,7-dimethyl-1H-pyrazolo[4,3-c]quinolin-8-yl)(2-(3-fluoropyridin-4-yl)-4-methylpyrazolidin-1-yl)methanone]
IC50 ([1]; read-out: IC50): 7.8 nM | IC50 [2]: 1820 nM | IC50 [3]: 40 nM | Selectivity HCT 116-WT/ HCT116 MTAP KO [3]: 45.38

Cc1cc2nc(N)c3cnn(C)c3c2cc1C(=O)N1CC(C)CN1c1ccc(F)cc1F (stereo not drawn) [Example 381, (4-amino-1,7-dimethyl-1H-pyrazolo[4,3-c]quinolin-8-yl)(2-(2,4-difluorophenyl)-4-methylpyrazolidin-1-yl)methanone]
IC50 ([1]; read-out: IC50): 4 nM | IC50 [2]: 2330 nM | IC50 [3]: 63 nM | Selectivity HCT 116-WT/ HCT116 MTAP KO [3]: 36.92

Cc1cc2nc(N)c3cnn(C)c3c2cc1C(=O)N1CC(C)CN1c1ccccc1Cl (stereo not drawn) [Example 382, (4-amino-1,7-dimethyl-1H-pyrazolo[4,3-c]quinolin-8-yl)(2-(2-chlorophenyl)-4-methylpyrazolidin-1-yl)methanone]
IC50 ([1]; read-out: IC50): 4.8 nM | IC50 [2]: 1540 nM | IC50 [3]: 124 nM | Selectivity HCT 116-WT/ HCT116 MTAP KO [3]: 12.40

Cc1cc2nc(N)c3cnn(C)c3c2cc1C(=O)N1CC(C)CN1c1cccc(Cl)c1F (stereo not drawn) [Example 383, (4-amino-1,7-dimethyl-1H-pyrazolo[4,3-c]quinolin-8-yl)(2-(3-chloro-2-fluorophenyl)-4-methylpyrazolidin-1-yl)methanone]
IC50 ([1]; read-out: IC50): 6 nM | IC50 [2]: 1770 nM | IC50 [3]: 50 nM | Selectivity HCT 116-WT/ HCT116 MTAP KO [3]: 35.34

Cc1cc2nc(N)c3cnn(C)c3c2cc1C(=O)N1CC(C)CN1c1ccc(OC(F)(F)F)cn1 (stereo not drawn) [Example 384, (4-amino-1,7-dimethyl-1H-pyrazolo[4,3-c]quinolin-8-yl)(4-methyl-2-(5-(trifluoromethoxy)pyridin-2-yl)pyrazolidin-1-yl)m ethanone]
IC50 ([1]; read-out: IC50): 4.1 nM | IC50 [2]: 3420 nM | IC50 [3]: 238 nM | Selectivity HCT 116-WT/ HCT116 MTAP KO [3]: 14.35

CCOc1ccc(N2CC(C)CN2C(=O)c2cc3c(cc2C)nc(N)c2cnn(C)c23)nn1 (stereo not drawn) [Example 385, (4-amino-1,7-dimethyl-1H-pyrazolo[4,3-c]quinolin-8-yl)(2-(6-ethoxypyridazin-3-yl)-4-methylpyrazolidin-1-yl)methanone]
IC50 ([1]; read-out: IC50): 5.4 nM | IC50 [2]: 3770 nM | IC50 [3]: 104 nM | Selectivity HCT 116-WT/ HCT116 MTAP KO [3]: 36.22

CC1CN(C(=O)c2cc3c(cc2Cl)nc(N)c2cnn(C)c23)N(c2ccccc2F)C1 (stereo not drawn) [Example 386, (4-amino-7-chloro-1-methyl-1H-pyrazolo [4,3-c]quinolin-8-yl)(2-(2-fluorophenyl)-4-methylpyrazolidin-1-yl)methanone]
IC50 ([1]; read-out: IC50): 6.2 nM | IC50 [2]: 336 nM | IC50 [3]: 13 nM | Selectivity HCT 116-WT/ HCT116 MTAP KO [3]: 25.85

Cc1cc2nc(N)c3cnn(C)c3c2cc1C(=O)N1CC(C)CN1c1cncc(F)c1 (stereo not drawn) [Example 387, (4-amino-1,7-dimethyl-1H-pyrazolo[4,3-c]quinolin-8-yl)(2-(5-fluoropyridin-3-yl)-4-methylpyrazolidin-1-yl)methanone]
IC50 ([1]; read-out: IC50): 3.7 nM | IC50 [2]: 2470 nM | IC50 [3]: 90 nM | Selectivity HCT 116-WT/ HCT116 MTAP KO [3]: 27.40

Cc1cc2nc(N)c3cnn(C)c3c2cc1C(=O)N1CCC(C)N1c1ncc(Br)cc1F (stereo not drawn) [Example 390, (4-amino-1,7-dimethyl-1H-pyrazolo[4,3-c]quinolin-8-yl)(2-(5-bromo-3-fluoropyridin-2-yl)-3-methylpyrazolidin-1-yl)metha none]
IC50 ([1]; read-out: IC50): 8.6 nM | IC50 [2]: > 10000 nM | IC50 [3]: 233 nM | Selectivity HCT 116-WT/ HCT116 MTAP KO [3]: >42.92

Cc1cc2nc(N)c3cnn(C)c3c2cc1C(=O)N1C(C)CCN1c1ncc(Br)cc1F (stereo not drawn) [Example 391, (4-amino-1,7-dimethyl-1H-pyrazolo[4,3-c]quinolin-8-yl)(2-(5-bromo-3-fluoropyridin-2-yl)-5-methylpyrazolidin-1-yl)metha none]
IC50 ([1]; read-out: IC50): 7.4 nM | IC50 [2]: 2850 nM | IC50 [3]: 84 nM | Selectivity HCT 116-WT/ HCT116 MTAP KO [3]: 33.94

CC1CN(C(=O)c2cc3c(cc2F)nc(N)c2cnn(C)c23)N(c2ncccc2F)C1 (stereo not drawn) [Example 393, (4-amino-7-fluoro-1-methyl-1H-pyrazolo [4,3-c]quinolin-8-yl)(2-(3-fluoropyridin-2-yl)-4-methylpyrazolidin-1-yl)methanone]
IC50 ([1]; read-out: IC50): 3.4 nM | IC50 [2]: 502 nM | IC50 [3]: 9.8 nM | Selectivity HCT 116-WT/ HCT116 MTAP KO [3]: 51.22

Cc1cc2nc(N)c3cnn(C)c3c2cc1C(=O)N1CC(C)CN1c1ncncc1F (stereo not drawn) [Example 395, (4-amino-1,7-dimethyl-1H-pyrazolo[4,3-c]quinolin-8-yl)(2-(5-fluoropyrimidin-4-yl)-4-methylpyrazolidin-1-yl)methanone]
IC50 ([1]; read-out: IC50): 4.9 nM | IC50 [2]: 2710 nM | IC50 [3]: 66 nM | Selectivity HCT 116-WT/ HCT116 MTAP KO [3]: 41.05

Cc1cc2nc(N)c3cnn(C)c3c2cc1C(=O)N1CC(C)CN1c1ccccc1 (stereo not drawn) [Example 396, (4-amino-1,7-dimethyl-1H-pyrazolo[4,3-c]quinolin-8-yl)(4-methyl-2-phenylpyrazolidin-1-yl)methanone]
IC50 ([1]; read-out: IC50): 5.2 nM | IC50 [2]: 4830 nM | IC50 [3]: 298 nM | Selectivity HCT 116-WT/ HCT116 MTAP KO [3]: 16.21

Cc1cc2nc(N)c3cnn(C)c3c2cc1C(=O)N1CC(C)CN1c1cnccn1 (stereo not drawn) [Example 397, (4-amino-1,7-dimethyl-1H-pyrazolo[4,3-c]quinolin-8-yl)(4-methyl-2-(pyrazin-2-yl)pyrazolidin-1-yl)methanone]
IC50 ([1]; read-out: IC50): 15 nM | IC50 [2]: 6790 nM | IC50 [3]: 197 nM | Selectivity HCT 116-WT/ HCT116 MTAP KO [3]: 34.46

CC1CN(C(=O)c2cc3c(cc2Cl)nc(N)c2cnn(C)c23)N(c2ncccc2F)C1 (stereo not drawn) [Example 398, (4-amino-7-chloro-1-methyl-1H-pyrazolo [4,3-c]quinolin-8-yl)(2-(3-fluoropyridin-2-yl)-4-methylpyrazolidin-1-yl)methanone]
IC50 ([1]; read-out: IC50): 3.9 nM | IC50 [2]: 1620 nM | IC50 [3]: 39 nM | Selectivity HCT 116-WT/ HCT116 MTAP KO [3]: 41.49

Cc1cc2nc(N)c3cnn(C)c3c2cc1C(=O)N1CC(C)CN1c1c(F)cccc1F (stereo not drawn) [Example 400, (4-amino-1,7-dimethyl-1H-pyrazolo[4,3-c]quinolin-8-yl)(2-(2,6-difluorophenyl)-4-methylpyrazolidin-1-yl)methanone]
IC50 ([1]; read-out: IC50): 5.8 nM | IC50 [2]: 1870 nM | IC50 [3]: 33 nM | Selectivity HCT 116-WT/ HCT116 MTAP KO [3]: 56.79

COc1ccccc1N1CC(C)CN1C(=O)c1cc2c(cc1C)nc(N)c1cnn(C)c12 (stereo not drawn) [Example 401, (4-amino-1,7-dimethyl-1H-pyrazolo[4,3-c]quinolin-8-yl)(2-(2-methoxyphenyl)-4-methylpyrazolidin-1-yl)methanone]
IC50 ([1]; read-out: IC50): 3.5 nM | IC50 [2]: > 10000 nM | IC50 [3]: 204 nM | Selectivity HCT 116-WT/ HCT116 MTAP KO [3]: >49.02

CC1CN(C(=O)c2cc3c(cc2Cl)nc(N)c2cnn(C)c23)N(c2cccc(F)c2F)C1 (stereo not drawn) [Example 402, (4-amino-7-chloro-1-methyl-1H-pyrazolo [4,3-c]quinolin-8-yl)(2-(2,3-difluorophenyl)-4-methylpyrazolidin-1-yl)methanone]
IC50 ([1]; read-out: IC50): 6.4 nM | IC50 [2]: 569 nM | IC50 [3]: 24 nM | Selectivity HCT 116-WT/ HCT116 MTAP KO [3]: 23.71

Cc1cc2nc(N)c3cnn(C)c3c2cc1C(=O)N1CC(C)CN1c1cccc(Cl)n1 (stereo not drawn) [Example 403, (4-amino-1,7-dimethyl-1H-pyrazolo[4,3-c]quinolin-8-yl)(2-(6-chloropyridin-2-yl)-4-methylpyrazolidin-1-yl)methanone]
IC50 ([1]; read-out: IC50): 3.8 nM | IC50 [2]: 277 nM | IC50 [3]: 14 nM | Selectivity HCT 116-WT/ HCT116 MTAP KO [3]: 19.79

Cc1cc2nc(N)c3cnn(C)c3c2cc1C(=O)N1CC(C)CN1c1cccc(Br)n1 (stereo not drawn) [Example 404, (4-amino-1,7-dimethyl-1H-pyrazolo[4,3-c]quinolin-8-yl)(2-(6-bromopyridin-2-yl) -4-methylpyrazolidin-1-yl)methanone]
IC50 ([1]; read-out: IC50): 6.6 nM | IC50 [2]: 114 nM | IC50 [3]: 4.6 nM | Selectivity HCT 116-WT/ HCT116 MTAP KO [3]: 24.78

Cc1cc2nc(N)c3cnn(C)c3c2cc1C(=O)N1CC(C)CN1c1cccc(C2CC2)n1 (stereo not drawn) [Example 405, (4-amino-1,7-dimethyl-1H-pyrazolo[4,3-c]quinolin-8-yl)(2-(6-cyclopropylpyridin-2-yl) -4-methylpyrazolidin-1-yl)methanone]
IC50 ([1]; read-out: IC50): 12.3 nM | IC50 [2]: 926 nM | IC50 [3]: 29 nM | Selectivity HCT 116-WT/ HCT116 MTAP KO [3]: 31.93

COc1cccc(N2CC(C)CN2C(=O)c2cc3c(cc2C)nc(N)c2cnn(C)c23)n1 (stereo not drawn) [Example 406]
IC50 [1]: 4.3 nM | IC50 [2]: 906 nM | IC50 [3]: 23 nM | Selectivity HCT 116-WT/ HCT116 MTAP KO [3]: 39.39

Cc1cc2nc(N)c3cnn(C)c3c2cc1C(=O)N1CC(CC(F)(F)F)CN1c1ncccc1F (stereo not drawn) [Example 408]
IC50 [1]: 4.8 nM | IC50 [2]: 203 nM | IC50 [3]: 10 nM | Selectivity HCT 116-WT/ HCT116 MTAP KO [3]: 20.30

Cc1cc2nc(N)c3cnn(C)c3c2cc1C(=O)N1CC2(CN1c1ncccc1F)CC(F)(F)C2 [Example 410, (4-amino-1,7-dimethyl-1H-pyrazolo[4,3-c]quinolin-8-yl)(2,2-difluoro-7-(3-fluoropyridin-2-yl)-6,7-diazaspiro[3.4]octan-6-yl)methanone]
IC50 ([1]; read-out: IC50): 5.2 nM | IC50 [2]: 219 nM | IC50 [3]: 9 nM | Selectivity HCT 116-WT/ HCT116 MTAP KO [3]: 24.33
